# Reference: patent US5439899A, “Cosalane and related compounds having activity against aids and aids-related infections” (priority 1993, dated 1995)
# pEC50, pIC50: −log10 of the molar value. “Also recorded” adds a separate entry of the source.
# Experiments:
# [1] = tested on: T4 lymphocytes (CEM cell line); test: NCI in vitro anti-HIV screen, growth inhibition of uninfected CEM cells (XTT); type: cell-based; conditions: Homo sapiens, CCRF-CEM, 144 h, read-out: IC50 (50% inhibitory concentration)
# Description: (§1) The assay includes the killing of T4 lymphocytes by HIV. Pursuant to the test, small amounts of HIV are added to cells, and a complete cycle of virus reproduction is necessary to obtain the required cell killing. Agents that interact with virions, cells, or virus gene-products to interfere with viral activities will protect cells from cytolysis. The system is thus designed to detect anti-HIV activity. However, compounds that degenerate or are rapidly metabolized in the culture conditions may not show activity in this screen. All tests are compared with at least one positive (e.g., AZT-treated) control done at the same time under identical conditions.
# (§2) 1. The candidate agent is dissolved in dimethyl sulfoxide (unless otherwise instructed), then diluted 1:200 in cell culture medium. Further dilutions (half-log10) are prepared before adding to 96-well microtiter plates.
# (§3) 2. T4 lymphocytes (CEM cell line) are exposed to HIV at a virus-to-cell ratio of approximately 0.05 and are plated along with non-infected control cells into drug-containing wells or wells with medium alone.
# (§4) 3. Cultures are incubated at 37° in a 5% carbon dioxide atmosphere for 6 days.
# (§5) 4. The tetrazolium salt, XTT, is added to all wells, and cultures are incubated to allow formazan color development by viable cells.
# (§6) 5. […] are analyzed spectrophotometrically to quantitate formazan production and, in addition, are viewed microscopically for detection of viable cells and confirmation of protective activity.
# (§7) 6. Drug-treated virus-infected cells are compared with drug-treated non-infected cells and with other appropriate controls (untreated infected and untreated non-infected cells, drug-containing wells without cells, etc.) on the same plate.
# (§8) 7. Data are reviewed in comparison with other tests performed at the same time, and a determination about activity is made.
# Survival values of this parameter less then 50% are considered acceptable in the current protocol.
# [2] = tested on: HIV; test: NCI in vitro anti-HIV screen (XTT soluble-formazan assay, protection of HIV-infected CEM cells); type: cell-based; conditions: for anti-HIV effect (statement): NCI anti-HIV screen, in vitro, CEM cells
# Description: as §1, with “The National Cancer Institute's procedure for testing for agents active against Human Immunodeficiency Virus (HIV) (Weislow, O. W. et al, "New soluble-formazan assay for HIV-1 cytopathic effects: application to high-flux screening of synthetic and natural products for AIDS-antiviral activity," J. Natl. Cancer Inst., 81, 577-586, 1989) is designed to detect agents acting at any stage of the virus reproductive cycle. The assay” for “The assay”
# as §2, §3, §4, §5, §6, §7, §8
# Approximate values for 50% effective concentration (EC50) (protection in infected cells), 50% inhibitory concentration (IC50) and the therapeutic index (IC50 /EC50) have been calculated for each test and are provided in the tables of each Example.
# Examples 1, 6 and 8 compounds, respectively, against the measured test values expressed as a percentage of the uninfected, untreated control values. The solid line depicts the percentage of surviving HIV-infected cells treated with sample (at the indicated concentration) relative to uninfected, untreated controls. The solid line expresses the in vitro anti-HIV activity of the compound of the tested compound. The dashed line depicts the percentage of surviving uninfected cells treated with the compound of the Example relative to the same uninfected, untreated controls. The dashed line expresses the in vitro growth inhibitory properties of the compound of the Example. The viral cytopathic effect of a compound of each Example is indicated by a combination of dashes and dots. […] Survival values of this parameter less then 50% are considered acceptable in the current protocol.
# [3] = tested on: reverse transcriptase; test: reverse transcriptase assay of cell-free supernatant; type: cell-based, HIV; conditions: in vitro
# Description: (§9) Activity was also examined by determination of p24 and reverse transcriptase concentrations.
# Reverse transcriptase assays were performed according to the method of Hoffman et al, Virology, 147, 326-335 (1985), with minor modifications. Briefly, 15 µl of cell-free supernatant was mixed with 10 μl of RT reaction buffer. The total 25 μl reaction mixture consisted of 2.5 μCi of tritated thymidine triphosphate (TTP) (ICN, 80 Ci/mmol), poly rA (50 ng/ml):oligo dT (10 ng/ml) template:primer (Pharmacia), 10 mM Tris, pH 7.6, 8 mM magnesium chloride, 10 mM dithiothreitol (DTT), and, in the standard reaction, 0.5% Triton X-100. Assays were performed in the absence of added EGTA unless indicated. When EGTA (Sigma) was added it was at a concentration of 1 mM. The reactions were incubated for 60 minutes at 37° C. The reaction volume was then spotted onto DE81 chromatography paper (Whatman), washed extensively in 5% dibasic sodium phosphate, and counted for incorporated radioactivity in a toluene-based scintillation cocktail. Assays were also performed to measure the presence of a nuclease activity associated with HIV virions. […] The HIV virion sample was added to the AMV RT reaction product and the amount of radioactivity able to bind to DE81 paper was monitored after varying times of incubation at 37° C. […]
# [4] = tested on: HIV; test: in vitro testing for infectious particles; type: cell-based
# [5] = tested on: HIV-1 p24; test: p24 antigen-capture assay; type: cell-based; conditions: in vitro
# Description: as §9
# To determine p24, a p24 antigen-capture assay was used. Culture fluids harvested from drug test plates or other sources were diluted 1:100 in 10% triton X-100 and stored frozen at -70° C. 200 μL aliquots of the triton treated samples were added in duplicate to microtiter wells previously coated with rabbit polyclonal anti-HIV-1 p24 serum and incubated at room temperature overnight. After washing and blotting, 100 μL of biotinylated polyclonal anti-HIV p-24 was added to each of the appropriate wells, and the plates were re-incubated at 37° C. for 60 minutes. A solution of streptavidin-horseradish peroxidase was added after additional washing and blotting. The contents of each plate were mixed and reincubated for 15 minutes at room temperature and, after washing and blotting, the o-phenylenediamine dihydrochloride substrate was added in 100 μL aliquots. Color was allowed to develop in the dark room at room temperature for 30 minutes, and the reaction was halted by the addition of 4 N H2 SO4. Optical density was measured at 490 nm, and the concentration of p24 was determined by comparison with a standard curve of known concentrations of p24. Eislow, O., et al., J. Nat'l Cancer Inst., 81 (8):577-86 (1989).
smiles,measurement,setting,value
"CC(C)CCC[C@@H](C)[C@H]1CC[C@H]2[C@@H]3CC[C@H]4C[C@@H](CCC=C(c5cc(Cl)c(O)c(C(=O)O)c5)c5cc(Cl)c(O)c(C(=O)O)c5)CC[C@]4(C)[C@H]3CC[C@]12C [Formula IV, 1,1-di(3'-ammoniumcarboxy-5'-chloro-4'-hydroxy)phenyl-4-(3β)-cholestanyl-1-butene]",pIC50,[1],< 3.51
same,anti-HIV effect (statement),[2],"greatest effect on inhibiting HIV-infected cells, while having a lesser effect on uninfected cells"
same,anti-HIV effect (statement),[2]; listed as Cosalane,highly effective anti-HIV agent in vitro; also recorded: most effective compounds studied in terms of prevention of the cytopathic effect of HIV in CEM lymphocytes
same,pEC50,"[2]; read-out: EC50 (50% effective concentration, protection in infected cells), HIV-infected CEM cells, 6 days, XTT, approximate values, one value per run",5.17
same,reverse transcriptase activity (FIG. 4),[3],indicating anti-HIV activity
same,infectious particles (FIG. 2),[4],indicating anti-HIV activity
same,p24 (FIG. 3),[5],indicating anti-HIV activity
